T/C data for 22 compounds are collected here from PubChem BioAssay AID248 (DTP/NCI, 2004).

The test relates to L1210 leukemia ip in BDF1 mice, survival T/C. Description: NCI In Vivo Anticancer Drug Screen. Data for tumor model L1210 Leukemia (intraperitoneal) in B6D2F1 (BDF1) mice. To be noted: endpoint: mean survival time, higher = longer survival. The method in brief: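 Tumor cells were implanted, animals were treated, and survival was followed. The result divides the treated measurement by the vehicle-control measurement.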

Where [1] appears, read: dose: 100.0 mg/kg/injection, schedule: Q04DX003 (ip), vehicle: saline.
The mark [2] stands for this setting: dose: 200.0 mg/kg/injection, schedule: Q04DX003 (ip), vehicle: saline.
[3] abbreviates: dose: 400.0 mg/kg/injection, schedule: Q04DX003 (ip), vehicle: saline.
The mark [4] stands for this setting: dose: 100.0 mg/kg/injection, schedule: Q04DX003 (ip), vehicle: saline with Tween-80.
Setting [5] is: dose: 200.0 mg/kg/injection, schedule: Q04DX003 (ip), vehicle: saline with Tween-80.
The mark [6] stands for this setting: dose: 400.0 mg/kg/injection, schedule: Q04DX003 (ip), vehicle: saline with Tween-80.
[7] abbreviates: dose: 100.0 mg/kg/injection, schedule: Q01DX001 (ip), vehicle: carboxymethylcellulose (CMC).
Setting [8] is: dose: 200.0 mg/kg/injection, schedule: Q01DX001 (ip), vehicle: carboxymethylcellulose (CMC).
[9] abbreviates: dose: 400.0 mg/kg/injection, schedule: Q01DX001 (ip), vehicle: carboxymethylcellulose (CMC).
Where [10] appears, read: dose: 100.0 mg/kg/injection, schedule: Q01DX009 (ip), vehicle: Klucel (hydroxypropylcellulose) (HPC).
[11] abbreviates: dose: 200.0 mg/kg/injection, schedule: Q01DX009 (ip), vehicle: Klucel (hydroxypropylcellulose) (HPC).
[12] abbreviates: dose: 100.0 mg/kg/injection, schedule: Q04DX003 (ip), vehicle: water.
Setting [13] is: dose: 200.0 mg/kg/injection, schedule: Q04DX003 (ip), vehicle: water.

Where “and” joins values, the source holds several entries; their conditions need not be identical. Identical values can stand only once. Toxic doses and inconclusive results are not listed.

In the case of `N#CCCN1CCN(CCC#N)CC1`, the T/C reads like this: under setting [1], 96 % of control; under setting [2], 103 % of control; under setting [3], 100 % of control.

With `CC(C)[N+](=O)[O-]`, the T/C is 104 % of control (dose: 62.5 mg/kg/injection, schedule: Q01DX001 (ip), vehicle: Klucel (hydroxypropylcellulose) (HPC)); 114 % of control (dose: 125.0 mg/kg/injection, schedule: Q01DX001 (ip), vehicle: Klucel (hydroxypropylcellulose) (HPC)); 101 % of control (dose: 250.0 mg/kg/injection, schedule: Q01DX001 (ip), vehicle: Klucel (hydroxypropylcellulose) (HPC)).

In the case of `COC(=O)c1ccc([N+](=O)[O-])cc1O`, the T/C under setting [4] was 101 % of control, the T/C under setting [5] was 102 % of control and the T/C under setting [6] is 104 % of control.

With `Nc1nc(N)c2c(Cl)c(CNc3ccc(C(=O)NC(CCCC(=O)O)C(=O)O)cc3)ccc2n1` (configuration not stated), the T/C was 170 % of control (dose: 1.0 mg/kg/injection, schedule: Q01DX009 (ip), vehicle: saline); 150 % of control and 152 % of control (dose: 2.0 mg/kg/injection, schedule: Q01DX009 (ip), vehicle: saline); 178 % of control and 206 % of control (dose: 4.0 mg/kg/injection, schedule: Q01DX009 (ip), vehicle: saline).

For the compound `CCCCCCCCCCCCSCCSCCCCCCCCCCCC`, the T/C is 93 % of control under setting [7], 86 % of control under setting [8] and 102 % of control under setting [9].

Take `COC(=O)c1cccc(C)c1NC(=O)NCCCl`: the T/C is, setting by setting: (dose: 100.0 mg/kg/injection, schedule: Q04DX003 (ip), vehicle: Klucel (hydroxypropylcellulose) (HPC)) 96 % of control; (dose: 200.0 mg/kg/injection, schedule: Q04DX003 (ip), vehicle: Klucel (hydroxypropylcellulose) (HPC)) 96 % of control; (dose: 400.0 mg/kg/injection, schedule: Q04DX003 (ip), vehicle: Klucel (hydroxypropylcellulose) (HPC)) 94 % of control.

As for `O=C(O)/C=C/C(=O)Nc1ccc(Cl)cc1C(=O)c1ccccc1`, the T/C by setting is: under setting [10], 101 % of control; under setting [11], 98 % of control.

Consider `CN(C)C(=O)c1cccc([N+](=O)[O-])c1`, for which the T/C was 97 % of control under setting [4] and 94 % of control under setting [5].

In the case of `CC(=O)Nc1ccc2c(c1)-c1ccccc1C2=O`, the T/C under setting [4] is 98 % of control, the T/C under setting [5] was 100 % of control and the T/C under setting [6] was 98 % of control.

On to `NNC(=O)c1ccc(Cl)c(Cl)c1`, for which the T/C (dose: 100.0 mg/kg/injection, schedule: Q01DX001 (ip), vehicle: Klucel (hydroxypropylcellulose) (HPC)) is 104 % of control; the T/C (dose: 200.0 mg/kg/injection, schedule: Q01DX001 (ip), vehicle: Klucel (hydroxypropylcellulose) (HPC)) is 117 % of control; the T/C (dose: 400.0 mg/kg/injection, schedule: Q01DX001 (ip), vehicle: Klucel (hydroxypropylcellulose) (HPC)) was 112 % of control.

In the case of `CSc1ccc(NC(=O)/C=C/c2ccccc2)cc1`, the T/C runs as follows: under setting [10], 106 % of control; under setting [11], 112 % of control; (dose: 400.0 mg/kg/injection, schedule: Q01DX009 (ip), vehicle: Klucel (hydroxypropylcellulose) (HPC)) 102 % of control.

On to `C=CC[N+](C)(CC=C)CC[N+](C)(CC=C)CC=C`, for which the T/C is 93 % of control (dose: 50.0 mg/kg/injection, schedule: Q01DX009 (ip), vehicle: water); 95 % of control (dose: 100.0 mg/kg/injection, schedule: Q01DX009 (ip), vehicle: water); 94 % of control under setting [12]; 96 % of control under setting [13].

Regarding `CCNC(C)(C)C(SS(=O)(=O)O)c1cccs1` (configuration not stated), the T/C was 109 % of control under setting [12]; 96 % of control under setting [13]; 94 % of control (dose: 400.0 mg/kg/injection, schedule: Q04DX003 (ip), vehicle: water).

In the case of `CCC1CCC2C(CCC3(N(C)C)CCC(OC)C(OC)C23)C1` (configuration not stated), the T/C by setting is: (dose: 3.13 mg/kg/injection, schedule: Q01DX001 (ip), vehicle: saline with Tween-80) 98 % of control; (dose: 6.25 mg/kg/injection, schedule: Q01DX001 (ip), vehicle: saline with Tween-80) 96 % of control; (dose: 12.5 mg/kg/injection, schedule: Q01DX001 (ip), vehicle: saline with Tween-80) 100 % of control.

Take `Cc1cccc2sc(=S)[nH]c12`: the T/C was 107 % of control (dose: 37.5 mg/kg/injection, schedule: Q04DX003 (ip), vehicle: Klucel (hydroxypropylcellulose) (HPC)); 92 % of control (dose: 75.0 mg/kg/injection, schedule: Q01DX009 (ip), vehicle: Klucel (hydroxypropylcellulose) (HPC)); 101 % of control (dose: 75.0 mg/kg/injection, schedule: Q04DX003 (ip), vehicle: Klucel (hydroxypropylcellulose) (HPC)); 92 % of control (dose: 150.0 mg/kg/injection, schedule: Q01DX009 (ip), vehicle: Klucel (hydroxypropylcellulose) (HPC)); 93 % of control (dose: 150.0 mg/kg/injection, schedule: Q04DX003 (ip), vehicle: Klucel (hydroxypropylcellulose) (HPC)); 93 % of control (dose: 300.0 mg/kg/injection, schedule: Q01DX009 (ip), vehicle: Klucel (hydroxypropylcellulose) (HPC)). In addition, the T/C (dose: 300.0 mg/kg/injection, schedule: Q04DX003 (ip), vehicle: Klucel (hydroxypropylcellulose) (HPC)) is 95 % of control.

As to `C1COC(CNCC2CCCO2)C1` (configuration not stated), the T/C runs as follows: (dose: 50.0 mg/kg/injection, schedule: Q01DX001 (ip), vehicle: saline) 109 % of control; (dose: 100.0 mg/kg/injection, schedule: Q01DX001 (ip), vehicle: saline) 101 % of control; (dose: 200.0 mg/kg/injection, schedule: Q01DX001 (ip), vehicle: saline) 103 % of control.

For the compound `Cc1cc(C)c([I+]c2c(C)cc(C)cc2C)c(C)c1`, the T/C runs as follows: (dose: 0.12 mg/kg/injection, schedule: Q01DX009 (ip), vehicle: saline) 102 % of control; (dose: 0.25 mg/kg/injection, schedule: Q01DX009 (ip), vehicle: saline) 111 % of control; (dose: 0.5 mg/kg/injection, schedule: Q01DX001 (ip), vehicle: saline) 90 % of control; (dose: 0.5 mg/kg/injection, schedule: Q01DX009 (ip), vehicle: saline) 122 % of control; (dose: 0.5 mg/kg/injection, schedule: Q01DX015 (ip), vehicle: saline) 100 % of control; (dose: 0.5 mg/kg/injection, schedule: Q04DX003 (ip), vehicle: acetone) 111 % of control. The T/C is, setting by setting: (dose: 1.0 mg/kg/injection, schedule: Q01DX001 (ip), vehicle: saline) 101 % of control; (dose: 1.0 mg/kg/injection, schedule: Q01DX015 (ip), vehicle: saline) 96 % of control; (dose: 2.0 mg/kg/injection, schedule: Q01DX001 (ip), vehicle: saline) 92 % of control; (dose: 2.0 mg/kg/injection, schedule: Q01DX015 (ip), vehicle: saline) 102 % of control; (dose: 4.0 mg/kg/injection, schedule: Q01DX015 (ip), vehicle: saline) 103 % of control.

For the compound `CN(C)CC(Cl)CCl` (configuration not stated), the T/C by setting is: under setting [1], 98 % of control; under setting [2], 107 % of control; under setting [3], 115 % of control.

Consider `CC(=O)CC(=O)Nc1cccnc1`, for which the T/C runs as follows: under setting [7], 100 % of control; under setting [8], 96 % of control; under setting [9], 100 % of control.

For the compound `CCOP(=O)(OCC)C1=C(CC)CC1`, the T/C (dose: 9.5 mg/kg/injection, schedule: Q01DX001 (ip), vehicle: other) is 109 % of control; the T/C (dose: 19.0 mg/kg/injection, schedule: Q01DX001 (ip), vehicle: other) was 111 % of control; the T/C (dose: 38.0 mg/kg/injection, schedule: Q01DX001 (ip), vehicle: other) is 106 % of control.

Consider `CCCCCCCCCCCCCCCC(=O)N(CCCCN(C)C)CCCCN(C)C`, for which the T/C is, setting by setting: (dose: 2.0 mg/kg/injection, schedule: Q01DX009 (ip), vehicle: carboxymethylcellulose (CMC)) 97 % of control; (dose: 4.0 mg/kg/injection, schedule: Q01DX009 (ip), vehicle: carboxymethylcellulose (CMC)) 98 % of control; (dose: 6.0 mg/kg/injection, schedule: Q01DX009 (ip), vehicle: carboxymethylcellulose (CMC)) 97 % of control.

Consider `O=c1[nH]n(-c2ccccc2)c(=O)cc1Cl`, for which the T/C is, setting by setting: (dose: 50.0 mg/kg/injection, schedule: Q01DX009 (ip), vehicle: saline with Tween-80) 97 % of control; (dose: 100.0 mg/kg/injection, schedule: Q01DX009 (ip), vehicle: saline with Tween-80) 89 % of control; (dose: 200.0 mg/kg/injection, schedule: Q01DX009 (ip), vehicle: saline with Tween-80) 86 % of control.
